Consider one compound from patent US8729053B2, “Nuclear factor kappa B pathway inhibitor composition and use of same” (The United States of America, as represented by the …, priority 2008, dated 2014).

The structures appear in SMILES notation. Structures can show the parent of a compound that is named as a salt.

One test relates to IL-6 mRNA. Put plainly: Quantitative RT-PCR of endogenous IL-6 mRNA in HEK293 cells. The class given is cell-based, human. To be noted: concentrations as low as 2.1 μM, 1 hour pretreatment, TPA 18 hours, normalized by GAPDH. As for the experimental part: Total RNA was isolated from HEK293 cells after pretreatment with varying compound I and/or TPA stimulation by ToTALLY RNA kit (Ambion, Austin, Tex.), and first-strand cDNA was synthesized from 1 μg of the isolated total RNA using the SuperScript III First-Strand Synthesis System (Invitrogen, Carlsbad, Calif.) with random hexamers, oligonucleotide primers. cDNA was purified by QIAquick PCR purification kit (Qiagen, Valencia, Calif.) according to the manufacturer's manual. Real-time PCR was performed with iQ SYBR Green Supermix (Bio-Rad, Hercules, Calif.) by iQ5 Multicolor RT-PCR detection system (Bio-Rad, Hercules, Calif.). Primers for endogenous human IL-6 were designed by Primer 3 program (http://frodo.wi.mit.edu/). Human glyceraldehyde-3-phosphate dehydrogenase (hGAPDH) was used as a control. The sequences for RT-PCR are as follows:
Inhibition of NFκB transactivation would be expected to result in suppressed expression of genes whose transcription depends on NFκB. Quantitative RT-PCR was used to measure endogenous levels of IL-6 mRNA, transcribed from a gene whose transcription depends on NFκB but not AP-1. […] Plasmids expressing luciferase reporters were driven by promoters for COX-2, uPAR (urokinase-type plasminogen activator receptor), or VEGF. […]

The test system of another test is IKKα/β. In words: Immunoblot of phosphorylated IKKα/β in HEK293 cells. It is filed as cell-based. As for the experimental part: To measure endogenous level of several proteins in response to TPA induction and compound I, HEK293 cells were lysed with RIPA buffer (10 mM Tris-HCl pH 7.5, 1 mM EDTA, 0.1% sodium dodecyl sulfate, 0.1% deoxycholate, and protease inhibitor). Whole cell extracts were subjected to immunoblot analysis with the following antibodies: p65 (F-6), p50 (E-10), p52 (C-5), RelB (C-19), IκBα (C-21), PCNA (F-2) were obtained from Santa Cruz Biotechnology (Santa Cruz, Calif.). IKKα, IKKβ, IKKγ, phospho-IκBα, phospho-IKKα/β, phospho-IKKγ, pohospho-Stat3 (Tyr 705 and Ser 727), phospho-p65 (Ser536 and Ser276), phospho-p44/42, phospho-JNKs were purchased from Cell Signaling (Danvers, Mass.), and α-tubulin from Sigma (St. Louis, Mo.). Nuclear and cytoplasmic extracts were prepared with HEK293 cells by NE-PER Nuclear and Cytoplasmic Extraction Reagents (Pierce Biotechnology, Rockford, Ill.) according to the manufacturer's protocol.
To characterize the activity of compound I in targeting events upstream of NFκB, endogenous levels of kinases involved in NFκB activation were examined by immunoblot analysis. The well-established upstream regulators of NFκB activation are IKKα, IKKβ, and IκBα. […] Moreover, the phosphorylation of IκBα was inhibited even at 1.1 μM showing dose-dependent decrease by compound I pretreatment. […]
For orientation: A western blot detects proteins with antibodies after separation by electrophoresis.

The test system of a further test is IκBα. In words: Phosphorylated IκBα levels in TPA treated breast cancer cell lines. It is filed as cell-based. To be noted: TPA treated MCF-7, T47D, MDA-MB-231. As for the experimental part:
In order to evaluate the potential therapeutic activity of the compound, tests for the biological activity of compound I were performed. The compound is non-toxic to MCF-7, T47D, and MDA-MB-231 breast cancer cells as estimated by XTT assay at 10 μM. To determine the effects of compound I on invasion by breast cancer cell lines, a matrigel invasion assay was used. The levels of phosphorylated IκBα were confirmed in TPA treated ER-positive (MCF-7 and T47D) and ER-negative (MDA-MB-231) breast cancer cell lines and compared the levels to those after pretreatment with compound I. Although induced levels of phosphorylated IκBα varied with the cell line, IκBα phosphorylation was eliminated by compound I treatment in all three breast cancer cell lines. Compound I also produced no effect on the estrogen receptor activity in the ER-positive breast cancer cells using ERE promoter luciferase reporter assay. Invasion capacity of breast cancer cells was increased by TPA stimulation compared to DMSO treated vehicle control. […] Following anchorage-independent colony induction in TPA-treated cells without or with compound I, colonies were lysed and measured with CyQuant GR Dye to detect DNA by fluorescence plate reader as a measure of colony count. Total transformed colony numbers were calculated from RFU and cell dose curve of JB6 cells. […]

On to `Cc1cc(N)ccc1N=Nc1ccc(S(=O)(=O)CCOS(=O)(=O)O)cc1` [compound I, 2-(4-((4-amino-2-methylphenyl)diazenyl)phenylsulfonyl)ethyl hydrogen sulfate], for which the “Part of TPA induction of IL-6 mRNA prevented” value in the test on IL-6 mRNA is listed as “more than half”. The “TPA-induced phosphorylation of IKKα/β” value with IKKα/β (HEK293, compared with IκBα inhibition at 17.0 and 8.5 μM) is “reduces”. Further, the “TNFα-induced phosphorylation of IKKα/β” value in the test on IKKα/β (at 1 hour) is on record as “inhibits”. The “IκBα phosphorylation in breast cancer cell lines” value in the test with IκBα was “eliminated”.
